From ChEMBL document CHEMBL6127062, “Targeted degradation of METTL3 against acute myeloid leukemia and gastric cancer” (Eur J Med Chem, 2024)
Blank lines part the entries; values can stand above or below the compound they belong to. Active and inactive are the calls of the source. The calls are words filed in the database; no cut-off is given here.

How the values were obtained:
[1] = tested on: GES1; experiment: Anticancer activity against human GES1 cells assessed as inhibition of cell growth incubated for 72 hrs by cell viability assay; assay type: functional, cell-based
[2] = tested on: AGS; experiment: Anticancer activity against human AGS cells assessed as inhibition of cell growth incubated for 72 hrs by cell viability assay; assay type: functional, cell-based
[3] = tested on: SNU-484; experiment: (§1) Anticancer activity against human SNU484 cells assessed as inhibition of cell growth incubated for 72 hrs by cell viability assay; assay type: functional, cell-based
[4] = tested on: MOLM-13; experiment: Antiproliferative activity against human MOLM-13 cells assessed as inhibition of cell proliferation measured after 72 hrs by Celltiter Glo luminescent cell viability assay; assay type: functional, cell-based; details: MOLM-13, 72 h
[5] = target: T1, Protein cereblon/N(6)-adenosine-methyltransferase catalytic subunit METTL3 (Homo sapiens) (UniProt Q96SW2+Q86U44); experiment: PROTAC activity at CRBN/METTL3 in human MOLM-13 cells assessed as induction of METTL3 degradation at 1 uM by Western blot analysis relative to control; assay type: cell-based
[6] = target: T1, Protein cereblon/N(6)-adenosine-methyltransferase catalytic subunit METTL3 (Homo sapiens); experiment: PROTAC activity at CRBN/METTL3 in human MOLM-13 cells assessed as induction of METTL3 degradation at 10 uM by Western blot analysis relative to control; assay type: cell-based
[7] = tested on: HL-60; experiment: Antiproliferative activity against human HL-60 cells assessed as cell growth inhibition after 72 hrs by Celltiter Glo luminescent cell viability assay; assay type: functional, cell-based
[8] = target: T2, von Hippel-Lindau disease tumor suppressor/N(6)-adenosine-methyltransferase catalytic subunit METTL3 (Homo sapiens, UniProt P40337+Q86U44); experiment: PROTAC activity at VHL/METTL3 (unknown origin) expressed in HeLa cells assessed as BRD4-eGFP_mCherry level incubated for 4 hrs in presence of MZ1 by flow cytometry analysis; assay type: cell-based
Target sequence in this assay (Q86U44 2-580 partner limits assumed): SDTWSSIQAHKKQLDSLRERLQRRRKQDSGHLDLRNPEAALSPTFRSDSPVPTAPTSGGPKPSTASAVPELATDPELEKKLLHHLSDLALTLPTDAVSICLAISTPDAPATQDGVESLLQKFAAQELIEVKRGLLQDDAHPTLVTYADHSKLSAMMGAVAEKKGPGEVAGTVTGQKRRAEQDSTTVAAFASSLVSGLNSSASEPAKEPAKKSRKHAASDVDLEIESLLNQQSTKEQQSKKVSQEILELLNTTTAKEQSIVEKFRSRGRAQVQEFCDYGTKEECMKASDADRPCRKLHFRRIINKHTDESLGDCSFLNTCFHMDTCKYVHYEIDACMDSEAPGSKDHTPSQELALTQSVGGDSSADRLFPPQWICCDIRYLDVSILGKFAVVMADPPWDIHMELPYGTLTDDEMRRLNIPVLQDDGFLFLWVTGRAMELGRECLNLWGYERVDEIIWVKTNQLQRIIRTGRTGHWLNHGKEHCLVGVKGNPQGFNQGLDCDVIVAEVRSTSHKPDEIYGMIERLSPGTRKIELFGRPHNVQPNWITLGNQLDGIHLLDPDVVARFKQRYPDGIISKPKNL
Target sequence in this assay (P40337 whole entry): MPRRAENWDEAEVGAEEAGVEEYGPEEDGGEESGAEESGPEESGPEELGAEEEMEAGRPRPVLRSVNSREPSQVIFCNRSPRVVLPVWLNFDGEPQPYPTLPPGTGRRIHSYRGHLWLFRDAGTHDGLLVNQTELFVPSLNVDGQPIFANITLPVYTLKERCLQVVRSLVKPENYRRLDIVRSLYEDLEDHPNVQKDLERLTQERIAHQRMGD

[9] = target: T2, von Hippel-Lindau disease tumor suppressor/N(6)-adenosine-methyltransferase catalytic subunit METTL3; experiment: PROTAC activity at VHL/METTL3 in human MOLM-13 cells assessed as induction of METTL3 degradation at 10 uM by Western blot analysis relative to control; assay type: cell-based
Target sequence in this assay (Q86U44 2-580 partner limits assumed): as the sequence (Q86U44 2-580 partner limits assumed) above
Target sequence in this assay (P40337 whole entry): as the sequence (P40337 whole entry) above

[10] = target: T2, von Hippel-Lindau disease tumor suppressor/N(6)-adenosine-methyltransferase catalytic subunit METTL3; experiment: PROTAC activity at VHL/METTL3 in human MOLM-13 cells assessed as induction of METTL3 degradation at 10 uM preincubated with UZH2 for 2 hrs followed by compound addition and measured after 24 hrs by Western blot analysis; assay type: cell-based
Target sequence in this assay (Q86U44 2-580 partner limits assumed): as the sequence (Q86U44 2-580 partner limits assumed) above
Target sequence in this assay (P40337 whole entry): as the sequence (P40337 whole entry) above

[11] = tested on: MOLM-13; experiment: Downregulation of C-Myc protein level expression in human MOLM-13 cells incubated for 24 hrs by Western blot analysis; assay type: functional, cell-based
[12] = target: T2, von Hippel-Lindau disease tumor suppressor/N(6)-adenosine-methyltransferase catalytic subunit METTL3; experiment: PROTAC activity at VHL/METTL3 in HEK293T cells assessed as induction of METTL3 degradation at 1 uM preincubated with epoxomicin for 2.5 hrs followed by compound addition and measured after 6 hrs by Western blot analysis; assay type: cell-based
Target sequence in this assay (Q86U44 2-580 partner limits assumed): as the sequence (Q86U44 2-580 partner limits assumed) above
Target sequence in this assay (P40337 whole entry): as the sequence (P40337 whole entry) above

[13] = target: T2, von Hippel-Lindau disease tumor suppressor/N(6)-adenosine-methyltransferase catalytic subunit METTL3; experiment: (§2) Binding affinity to N-Luc tagged METTL3 (unknown origin)/Halo-tagged VHL (unknown origin) expressed in HEK293T cells assessed as ternary complex formation by measuring increase in BRET ratio at 1 uM preincubated with epoxomicin for 2 hrs followed by compound addition and measured after 4.5 hrs by NanoBRET assay; assay type: cell-based
Target sequence in this assay (Q86U44 2-580 partner limits assumed): as the sequence (Q86U44 2-580 partner limits assumed) above
Target sequence in this assay (P40337 whole entry): as the sequence (P40337 whole entry) above

[14] = target: T2, von Hippel-Lindau disease tumor suppressor/N(6)-adenosine-methyltransferase catalytic subunit METTL3; experiment: PROTAC activity at VHL/METTL3 in human MOLM-13 cells assessed as induction of METTL3 degradation incubated for 24 hrs by Western blot analysis; assay type: cell-based
[15] = target: T2, von Hippel-Lindau disease tumor suppressor/N(6)-adenosine-methyltransferase catalytic subunit METTL3; experiment: PROTAC activity at VHL/METTL3 expressed in human SNU-484 cells assessed as reduction of cytoplasmic METTL3 protein level at 1 uM incubated for 24 hrs by Western blot analysis; assay type: cell-based
Target sequence in this assay (Q86U44 2-580 partner limits assumed): as the sequence (Q86U44 2-580 partner limits assumed) above
Target sequence in this assay (P40337 whole entry): as the sequence (P40337 whole entry) above

[16] = tested on: GES1; experiment: Cytotoxicity against human GES1 cells assessed as reduction in cell viability incubated for 24 hrs; assay type: toxicity, cell-based; details: ges1, 24 h
[17] = target: T2, von Hippel-Lindau disease tumor suppressor/N(6)-adenosine-methyltransferase catalytic subunit METTL3; experiment: PROTAC activity at VHL/METTL3 in HEK293T cells assessed as induction of METTL3 degradation at 1 uM preincubated with MG132 for 2.5 hrs followed by compound addition and measured after 6 hrs by Western blot analysis; assay type: cell-based
[18] = tested on: HeLa; experiment: Binding affinity to METTL3/GFP-fused BRD4 (unknown origin) expressed in HeLa cells presence of MZ1 by Western blot analysis; assay type: cell-based; details: Homo sapiens
[19] = tested on: MOLM-14; experiment: Antiproliferative activity against human MOLM-14 cells assessed as cell growth inhibition after 72 hrs by Celltiter Glo luminescent cell viability assay; assay type: functional, cell-based
[20] = target: T2, von Hippel-Lindau disease tumor suppressor/N(6)-adenosine-methyltransferase catalytic subunit METTL3; experiment: PROTAC activity at VHL/METTL3 in human MOLM-13 cells assessed as induction of METTL3 degradation at 10 uM preincubated with VH032 for 2 hrs followed by compound addition and measured after 24 hrs by Western blot analysis; assay type: cell-based
[21] = target: T2, von Hippel-Lindau disease tumor suppressor/N(6)-adenosine-methyltransferase catalytic subunit METTL3; experiment: PROTAC activity at VHL/METTL3 in human MOLM-13 cells assessed as induction of METTL3 degradation at 1 uM by Western blot analysis relative to control; assay type: cell-based
[22] = tested on: MOLM-13; experiment: Induction of apoptosis in human MOLM-13 cells at 5 uM incubated for 48 hrs by Annexin V/PI staining based flow cytometry analysis; assay type: functional, cell-based
[23] = target: T2, von Hippel-Lindau disease tumor suppressor/N(6)-adenosine-methyltransferase catalytic subunit METTL3; experiment: PROTAC activity at VHL/METTL3 in HEK293T cells assessed as induction of METTL3 degradation at 1 uM preincubated with 3MA autophagy inhibitor for 2.5 hrs followed by compound addition and measured after 6 hrs by Western blot analysis; assay type: cell-based
[24] = target: N6-adenosine-methyltransferase catalytic subunit (Homo sapiens) (UniProt Q86U44); experiment: Induction of thermal stabilization of METTL3 in human MOLM-13 cells at 52.4 to 54.8 degreeC incubated for 1 hrs by cellular thermal shift assay; assay type: cell-based
[25] = target: T2, von Hippel-Lindau disease tumor suppressor/N(6)-adenosine-methyltransferase catalytic subunit METTL3; experiment: PROTAC activity at VHL/METTL3 in human MOLM-13 cells assessed as induction of METTL3 degradation at 1 uM incubated for 24 hrs by Western blot analysis relative to control; assay type: cell-based
[26] = tested on: Gastric cancer organoid; experiment: Anti-proliferative activity against patient derived GA215T organoids assessed as suppression of tumor growth incubated for 5 days by Celltiter-glo viability assay; assay type: functional, tissue-based; details: Homo sapiens; Neoplasm; time 5.0 day
[27] = as §1; assay type: functional, cell-based; details: SNU-484, 72 h
[28] = target: T2, von Hippel-Lindau disease tumor suppressor/N(6)-adenosine-methyltransferase catalytic subunit METTL3; experiment: PROTAC activity at VHL/METTL3 in human MOLM-13 cells assessed as induction of METTL3 degradation at 1 uM incubated for 4 hrs by Western blot analysis relative to control; assay type: cell-based
[29] = target: T2, von Hippel-Lindau disease tumor suppressor/N(6)-adenosine-methyltransferase catalytic subunit METTL3; experiment: PROTAC activity at VHL/METTL3 in HEK293T cells assessed as induction of METTL3 degradation at 1 uM preincubated with MLN4924 for 2.5 hrs followed by compound addition and measured after 6 hrs by Western blot analysis; assay type: cell-based
[30] = target: T2, von Hippel-Lindau disease tumor suppressor/N(6)-adenosine-methyltransferase catalytic subunit METTL3; experiment: PROTAC activity at VHL/METTL3 expressed in human AGS cells assessed as reduction of cytoplasmic METTL3 protein level at 1 uM incubated for 24 hrs by Western blot analysis; assay type: cell-based
[31] = target: T2, von Hippel-Lindau disease tumor suppressor/N(6)-adenosine-methyltransferase catalytic subunit METTL3; experiment: PROTAC activity at VHL/METTL3 in human MOLM-13 cells assessed as induction of METTL3 degradation at 1 uM by Western blot analysis; assay type: cell-based; details: time 4-24 hrs, TDE = time-dependent effect
[32] = target: METTL3/METTL14 (Homo sapiens, UniProt Q86U44); experiment: Inhibition of METTL3/METTL14 (unknown origin) using Oligo ssRNA as substrate incubated for 20 min by Hotspot RNA methyltransferase assay; assay type: protein-complex assay
[33] = target: T2, von Hippel-Lindau disease tumor suppressor/N(6)-adenosine-methyltransferase catalytic subunit METTL3; experiment: PROTAC activity at VHL/METTL3 (unknown origin) expressed in HeLa cells incubated for 4 hrs presence of MZ1 by flow cytometry analysis; assay type: cell-based
[34] = tested on: Gastric cancer organoid; experiment: Anti-proliferative activity against patient derived GA352T organoids assessed as suppression of tumor growth incubated for 5 days by Celltiter-glo viability assay; assay type: functional, tissue-based; details: Homo sapiens; Neoplasm; time 5.0 day
[35] = target: T2, von Hippel-Lindau disease tumor suppressor/N(6)-adenosine-methyltransferase catalytic subunit METTL3; experiment: PROTAC activity at VHL/METTL3 expressed in human SNU-484 cells assessed as reduction of METTL3 protein level in nucleus fraction at 1 uM incubated for 24 hrs by Western blot analysis; assay type: cell-based
[36] = target: N6-adenosine-methyltransferase catalytic subunit (Homo sapiens) (UniProt Q86U44); experiment: Induction of thermal stabilization of endogenous METTL3 in human MOLM-13 cells incubated for 1 hrs by cellular thermal shift assay; assay type: cell-based
[37] = target: T2, von Hippel-Lindau disease tumor suppressor/N(6)-adenosine-methyltransferase catalytic subunit METTL3; experiment: as §2, with “decrease” for “increase”, “30” for “1”; assay type: cell-based
[38] = target: T2, von Hippel-Lindau disease tumor suppressor/N(6)-adenosine-methyltransferase catalytic subunit METTL3; experiment: Binding affinity to N-Luc tagged METTL3 (unknown origin)/Halo-tagged VHL (unknown origin) HA-Ub expressed in HEK293T cells assessed as ternary complex formation by measuring increase ubiquitination level at 1 uM preincubated with epoxomicin for 2.5 hrs followed by compound addition and measured after 6 hrs by NanoBRET assay; assay type: cell-based
[39] = target: T2, von Hippel-Lindau disease tumor suppressor/N(6)-adenosine-methyltransferase catalytic subunit METTL3; experiment: PROTAC activity at VHL/METTL3 in human MOLM-13 cells assessed as induction of METTL3 degradation incubated for 4 to 24 hrs by Western blot analysis relative to control; assay type: cell-based; details: time 4-24 hrs
[40] = target: T2, von Hippel-Lindau disease tumor suppressor/N(6)-adenosine-methyltransferase catalytic subunit METTL3; experiment: PROTAC activity at VHL/METTL3 expressed in human AGS cells assessed as reduction of METTL3 protein level in nucleus fraction at 1 uM incubated for 24 hrs by Western blot analysis; assay type: cell-based

T1 sequence (Q86U44 whole entry, looked up): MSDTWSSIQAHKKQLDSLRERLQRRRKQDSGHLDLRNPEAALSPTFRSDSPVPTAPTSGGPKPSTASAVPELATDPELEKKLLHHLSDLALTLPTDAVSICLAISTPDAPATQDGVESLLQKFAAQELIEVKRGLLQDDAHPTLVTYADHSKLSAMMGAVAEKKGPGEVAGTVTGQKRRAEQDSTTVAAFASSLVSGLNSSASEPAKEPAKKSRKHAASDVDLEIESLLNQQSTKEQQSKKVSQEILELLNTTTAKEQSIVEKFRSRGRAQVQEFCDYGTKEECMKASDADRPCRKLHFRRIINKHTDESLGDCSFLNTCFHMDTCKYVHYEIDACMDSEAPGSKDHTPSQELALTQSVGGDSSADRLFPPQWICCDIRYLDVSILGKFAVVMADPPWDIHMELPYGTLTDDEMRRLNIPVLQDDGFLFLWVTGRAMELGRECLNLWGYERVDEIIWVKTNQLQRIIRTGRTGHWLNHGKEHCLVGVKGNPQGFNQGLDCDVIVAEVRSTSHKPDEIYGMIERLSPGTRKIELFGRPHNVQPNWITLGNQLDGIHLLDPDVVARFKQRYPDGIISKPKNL
T1 sequence (Q96SW2 whole entry, looked up): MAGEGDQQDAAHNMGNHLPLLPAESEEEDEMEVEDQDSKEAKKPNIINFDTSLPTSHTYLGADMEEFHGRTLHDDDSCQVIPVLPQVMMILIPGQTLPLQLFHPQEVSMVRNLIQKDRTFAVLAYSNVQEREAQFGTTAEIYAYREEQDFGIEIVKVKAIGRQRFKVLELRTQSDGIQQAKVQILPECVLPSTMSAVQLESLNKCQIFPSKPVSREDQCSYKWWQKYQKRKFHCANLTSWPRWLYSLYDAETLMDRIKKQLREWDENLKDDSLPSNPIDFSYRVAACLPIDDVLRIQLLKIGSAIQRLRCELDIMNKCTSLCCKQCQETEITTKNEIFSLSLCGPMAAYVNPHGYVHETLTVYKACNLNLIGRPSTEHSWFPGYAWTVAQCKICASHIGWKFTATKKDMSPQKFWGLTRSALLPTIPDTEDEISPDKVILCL
Chain of N6-adenosine-methyltransferase catalytic subunit (Homo sapiens) (Q86U44 whole entry): as the sequence (Q86U44 whole entry, looked up) above
Chain of METTL3/METTL14 (Q86U44 whole entry): as the sequence (Q86U44 whole entry, looked up) above
Chain of METTL3/METTL14 (Q9HCE5 whole entry, further chain): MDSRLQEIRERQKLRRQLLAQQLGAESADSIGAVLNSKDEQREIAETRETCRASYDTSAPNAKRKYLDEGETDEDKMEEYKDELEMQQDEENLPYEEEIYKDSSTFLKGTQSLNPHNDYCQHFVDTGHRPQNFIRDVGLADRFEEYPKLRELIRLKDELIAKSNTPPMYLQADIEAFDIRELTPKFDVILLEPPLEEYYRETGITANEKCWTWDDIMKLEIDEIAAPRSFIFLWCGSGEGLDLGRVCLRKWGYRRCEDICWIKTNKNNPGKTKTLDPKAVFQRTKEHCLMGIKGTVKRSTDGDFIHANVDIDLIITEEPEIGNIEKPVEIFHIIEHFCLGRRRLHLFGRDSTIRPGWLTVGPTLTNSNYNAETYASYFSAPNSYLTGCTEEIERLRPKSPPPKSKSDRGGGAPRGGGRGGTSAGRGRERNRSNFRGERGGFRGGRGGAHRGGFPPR

IC50 [4]: 6170 nM
Compound: CNc1cc(N2CCC3(CC2)CN(c2cc(F)c(CN4CCC(C)(C)CC4)cc2F)CC(=O)N3)ncn1
Activity [1]: inactive
Activity [2]: inactive
Activity [3]: inactive

Activity [5]: 32%
Activity [6]: 35%
Compound: CC1(C)CCN(Cc2cc(F)c(N3CC(=O)NC4(CCN(c5cc(NCCCCCC(=O)N6CCN(c7ccc8c(c7)C(=O)N(C7CCC(=O)NC7=O)C8=O)CC6)ncn5)CC4)C3)cc2F)CC1 (stereo unspecified)

Activity [5]: 33%
Activity [6]: 29%
Compound: CC1(C)CCN(Cc2cc(F)c(N3CC(=O)NC4(CCN(c5cc(NCCCCCCCC(=O)N6CCN(c7ccc8c(c7)C(=O)N(C7CCC(=O)NC7=O)C8=O)CC6)ncn5)CC4)C3)cc2F)CC1 (stereo unspecified)

Activity [8]: inactive
Activity [9]: 50%
Activity [10]: inactive
Activity [12]: inactive
Activity [13]: Active
Activity [14]: Dose-Dependent Effect
DC50 [14]: 220 nM
Activity [15]: Active
Activity [17]: inactive
Activity [20]: Active
Activity [21]: 84%
Activity [23]: Active
Activity [24]: Active
Activity [25]: 90%
IC50 [2]: 1480 nM
IC50 [4]: 1040 nM
Activity [28]: > 50%
Activity [29]: inactive
Activity [30]: Active
Activity [31]: Tde
IC50 [32]: 341 nM
Activity [33]: Active
Activity [35]: Active
Activity [36]: Dose-Dependent Effect
Activity [37]: inactive
Activity [38]: Active
Activity [39]: Dose-Dependent Effect
Activity [40]: Active
Compound: Cc1ncsc1-c1ccc(CNC(=O)[C@@H]2C[C@@H](O)CN2C(=O)[C@@H](NC(=O)CCCCCCCNc2cc(N3CCC4(CC3)CN(c3cc(F)c(CN5CCC(C)(C)CC5)cc3F)CC(=O)N4)ncn2)C(C)(C)C)cc1
IC50 ([1]; GES1, 72 h): > 50000 nM
Activity [7]: Active
Activity [11]: Dose-Dependent Effect
Activity [16]: Toxic
Activity [18]: Active
Activity [19]: Active
Activity [22]: Active
Activity [26]: Active
IC50 [27]: 3000 nM
Activity [34]: Active
